Results reported in PubChem BioAssay (NCI).
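Growth conditions: 96-well plates. Treatment: test compound, 48 hours, 5 concentrations. Analysis: linear interpolation between bracketing concentrations; unreached endpoints set to highest concentration. The concentration for 50% growth inhibition is given as GI50. Definition used: TGI = concentration required for complete inhibition of growth.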 *1 amine or outer side, *2 acyl side, *3 side chain or, on linkers, in order; H or OH if unused. Where a SMILES comes first, the peptide text is derived from it. Bridges are numbered along the chain shown (N, C = ends). Roman numbers before positions name the chains, in order. [ ]: non-standard residue; d: D form. ξ: configuration not given here. Actinocin(1to9) = Cc1c2oc3c(C)ccc(C(=O)[*:2])c3nc-2c(C(=O)[*:1])c(N)c1=O; Pro(4-oxo) = O=C1CN[C@H](C(=O)O)C1; Thr(3ξ) = CC(O)[C@H](N)C(=O)O; NMeV = CN[C@H](C(=O)O)C(C)C; Sar = CNCC(=O)O

How the values were obtained:
Assay in all cases: NCI tumour cell line growth inhibition, 48 h
SF-268 CNS = test system: SF-268 CNS
786-0 renal = test system: 786-0 renal
NCI-H23 lung = test system: NCI-H23 lung
MDA-MB-231 breast = test system: MDA-MB-231 breast
MALME-3M melanoma = test system: MALME-3M melanoma
SF-539 CNS = test system: SF-539 CNS
DU-145 prostate = test system: DU-145 prostate
SW-620 colon = test system: SW-620 colon
A498 renal = test system: A498 renal
RXF 393 renal = test system: RXF 393 renal
NCI-H522 lung = test system: NCI-H522 lung
OVCAR-3 ovarian = test system: OVCAR-3 ovarian
SK-MEL-2 melanoma = test system: SK-MEL-2 melanoma
K-562 leukemia = test system: K-562 leukemia
T-47D breast = test system: T-47D breast
UACC-62 melanoma = test system: UACC-62 melanoma
OVCAR-8 ovarian = test system: OVCAR-8 ovarian
KM12 colon = test system: KM12 colon
NCI-H460 lung = test system: NCI-H460 lung
HOP-92 NSCLC = test system: HOP-92 NSCLC
OVCAR-5 ovarian = test system: OVCAR-5 ovarian
M14 melanoma = test system: M14 melanoma
PC-3 prostate = test system: PC-3 prostate
RPMI-8226 leukemia = test system: RPMI-8226 leukemia
SN12C renal = test system: SN12C renal
COLO 205 colon = test system: COLO 205 colon
MOLT-4 leukemia = test system: MOLT-4 leukemia
CCRF-CEM leukemia = test system: CCRF-CEM leukemia
SNB-75 CNS = test system: SNB-75 CNS
IGROV1 ovarian = test system: IGROV1 ovarian
HCT-15 colon = test system: HCT-15 colon
SK-MEL-5 melanoma = test system: SK-MEL-5 melanoma
OVCAR-4 ovarian = test system: OVCAR-4 ovarian
SK-OV-3 ovarian = test system: SK-OV-3 ovarian
NCI/ADR-RES ovarian = test system: NCI/ADR-RES ovarian
MDA-MB-435 = test system: MDA-MB-435
HOP-62 NSCLC = test system: HOP-62 NSCLC
MDA-MB-468 breast = test system: MDA-MB-468 breast
SF-295 CNS = test system: SF-295 CNS
HL-60(TB) leukemia = test system: HL-60(TB) leukemia
HCC-2998 colon = test system: HCC-2998 colon
BT-549 breast = test system: BT-549 breast
TK-10 renal = test system: TK-10 renal
SNB-19 CNS = test system: SNB-19 CNS
EKVX NSCLC = test system: EKVX NSCLC
SR leukemia = test system: SR leukemia
SK-MEL-28 melanoma = test system: SK-MEL-28 melanoma
HS 578T breast = test system: HS 578T breast
U251 CNS = test system: U251 CNS

SMILES: Cc1c2oc3c(C)ccc(C(=O)N[C@@H]4C(=O)N[C@H](C(C)C)C(=O)N5CCC[C@H]5C(=O)N(C)CC(=O)N(C)[C@@H](C(C)C)C(=O)OC4C)c3nc-2c(C(=O)N[C@@H]2C(=O)N[C@H](C(C)C)C(=O)N3CC(=O)C[C@H]3C(=O)N(C)CC(=O)N(C)[C@@H](C(C)C)C(=O)OC2C)c(N)c1=O (stereo partly drawn) (I: [Thr(3ξ)][dV][Pro(4-oxo)][Sar][NMeV] / II: [Thr(3ξ)][dV]P[Sar][NMeV]; ester I:1-I:C, II:1-II:C; linker I:N-II:N via Actinocin(1to9))
- GI50 (SF-268 CNS): < 10 nM
- TGI (SF-268 CNS): 1100 nM
- GI50 (786-0 renal): < 10 nM
- TGI (786-0 renal): 10300 nM
- GI50 (NCI-H23 lung): < 10 nM
- TGI (NCI-H23 lung): < 10 nM
- GI50 (MDA-MB-231 breast): < 10 nM
- TGI (MDA-MB-231 breast): 16.7 nM
- GI50 (MALME-3M melanoma): < 10 nM
- TGI (MALME-3M melanoma): < 10 nM
- GI50 (SF-539 CNS): < 10 nM
- TGI (SF-539 CNS): < 10 nM
- GI50 (DU-145 prostate): < 10 nM
- TGI (DU-145 prostate): 30300 nM
- GI50 (SW-620 colon): < 10 nM
- TGI (SW-620 colon): 11300 nM
- GI50 (A498 renal): < 10 nM
- TGI (A498 renal): < 10 nM
- GI50 (RXF 393 renal): < 10 nM
- TGI (RXF 393 renal): < 10 nM
- GI50 (NCI-H522 lung): < 10 nM
- TGI (NCI-H522 lung): < 10 nM
- GI50 (OVCAR-3 ovarian): < 10 nM
- TGI (OVCAR-3 ovarian): 1980 nM
- GI50 (SK-MEL-2 melanoma): < 10 nM
- TGI (SK-MEL-2 melanoma): < 10 nM
- GI50 (K-562 leukemia): < 10 nM
- TGI (K-562 leukemia): 163 nM
- GI50 (T-47D breast): < 10 nM
- TGI (T-47D breast): < 10 nM
- GI50 (UACC-62 melanoma): < 10 nM
- TGI (UACC-62 melanoma): < 10 nM
- GI50 (OVCAR-8 ovarian): < 10 nM
- TGI (OVCAR-8 ovarian): 17700 nM
- GI50 (KM12 colon): < 10 nM
- TGI (KM12 colon): 6980 nM
- GI50 (NCI-H460 lung): < 10 nM
- TGI (NCI-H460 lung): 10300 nM
- GI50 (HOP-92 NSCLC): < 10 nM
- TGI (HOP-92 NSCLC): < 10 nM
- GI50 (OVCAR-5 ovarian): < 10 nM
- TGI (OVCAR-5 ovarian): 3200 nM
- GI50 (M14 melanoma): < 10 nM
- TGI (M14 melanoma): < 21.5 nM
- GI50 (PC-3 prostate): < 10 nM
- TGI (PC-3 prostate): 294 nM
- GI50 (RPMI-8226 leukemia): < 10 nM
- TGI (RPMI-8226 leukemia): 14.7 nM
- GI50 (SN12C renal): < 10 nM
- TGI (SN12C renal): 579 nM
- GI50 (COLO 205 colon): < 10 nM
- TGI (COLO 205 colon): < 10 nM
- GI50 (MOLT-4 leukemia): < 10 nM
- TGI (MOLT-4 leukemia): 25.2 nM
- GI50 (CCRF-CEM leukemia): < 10 nM
- TGI (CCRF-CEM leukemia): 35.2 nM
- GI50 (SNB-75 CNS): < 10 nM
- TGI (SNB-75 CNS): < 10 nM
- GI50 (IGROV1 ovarian): < 10 nM
- TGI (IGROV1 ovarian): 4590 nM
- GI50 (HCT-15 colon): < 10 nM
- TGI (HCT-15 colon): 10100 nM
- GI50 (SK-MEL-5 melanoma): < 10 nM
- TGI (SK-MEL-5 melanoma): < 10 nM
- GI50 (OVCAR-4 ovarian): < 10 nM
- TGI (OVCAR-4 ovarian): 4600 nM
- GI50 (SK-OV-3 ovarian): < 10 nM
- TGI (SK-OV-3 ovarian): 490 nM
- GI50 (NCI/ADR-RES ovarian): 52 nM
- TGI (NCI/ADR-RES ovarian): 1060 nM
- GI50 (MDA-MB-435): < 10 nM
- TGI (MDA-MB-435): < 10 nM
- GI50 (HOP-62 NSCLC): < 10 nM
- TGI (HOP-62 NSCLC): < 10 nM
- GI50 (MDA-MB-468 breast): < 10 nM
- TGI (MDA-MB-468 breast): < 10 nM
- GI50 (SF-295 CNS): < 10 nM
- TGI (SF-295 CNS): 92 nM
- GI50 (HL-60(TB) leukemia): < 10 nM
- TGI (HL-60(TB) leukemia): 48.3 nM
- GI50 (HCC-2998 colon): < 10 nM
- TGI (HCC-2998 colon): < 11.4 nM
- GI50 (BT-549 breast): < 10 nM
- TGI (BT-549 breast): < 10 nM
- GI50 (TK-10 renal): < 10 nM
- TGI (TK-10 renal): 6400 nM
- GI50 (SNB-19 CNS): < 10 nM
- TGI (SNB-19 CNS): 172 nM
- GI50 (EKVX NSCLC): < 10 nM
- TGI (EKVX NSCLC): < 33.2 nM
- GI50 (SR leukemia): < 10 nM
- TGI (SR leukemia): < 10.4 nM
- GI50 (SK-MEL-28 melanoma): < 10 nM
- TGI (SK-MEL-28 melanoma): < 10 nM
- GI50 (HS 578T breast): < 10 nM
- TGI (HS 578T breast): 197 nM
- GI50 (U251 CNS): < 10 nM
- TGI (U251 CNS): 5750 nM
